# Measured values published in patent publication US20240182859A1, “MEDIUM COMPOSITION FOR CULTURING MUSCLE STEM CELL COMPRISING CURCUMIN LONGA, GLYSIN, OR INSULIN FOR PROLIFERATION OF MUSCLE STEM CELL” (HYUPSUNG UNIVERSITY INDUSTRY-ACADEMIC COOPERATION FOUNDATION, priority 2021, published 2024).
# How the values were obtained:
# bovine muscle stem cells = test: Proliferation of bovine muscle stem cells in supplemented DMEM culture medium; type: cell-based
# Procedure: (§1) In detail, first, bovine rump meat was treated with trypsin, and then primary-cultured to obtain bovine muscle stem cells.
# In detail, first, bovine rump meat was treated with trypsin, and then primary-cultured to obtain bovine muscle stem cells. […] As a control, a DMEM basal medium supplemented with 5% FBS was used.
# In detail, first, bovine rump meat was treated with trypsin, and then primary-cultured to obtain bovine muscle stem cells. Afterwards, the muscle stem cells were cultured in the DMEM basal medium supplemented with 5% FBS and 10 μM of insulin, and the proliferation of the muscle stem cells was measured. As a control, a DMEM basal medium supplemented with 5% FBS was used.
# Oct4 = test: qPCR expression level of Oct4 (muscle stem cell marker) in cultured muscle stem cells; type: cell-based, bovine
# Procedure: (§2) In detail, first, bovine rump meat was treated with trypsin, and then primary-cultured to obtain bovine muscle stem cells. Afterwards, a culture medium supplemented with curcumin and bFGF was prepared by varying the concentration of curcumin (0.1 μm, 1 μm, 5 μm, 8 μm, and 10 8 μm, respectively) in a DMEM basal medium supplemented with 5% FBS and 8 ng/ml of bFGF, and the muscle stem cells were cultured through passage culture twice.
# (§3) In detail, first, bovine rump meat was treated with trypsin, and then primary-cultured to obtain bovine muscle stem cells. Afterwards, a culture medium supplemented with curcumin was prepared by varying the concentration of curcumin (0.1 μm, 1 μm, 5 μm, 8 μm, and 10 μm, respectively) in a DMEM basal medium supplemented with 5% FBS, and the muscle stem cells were cultured through passage culture twice.
# as §1
# (§4) First, bovine rump meat was treated with trypsin, and then primary-cultured to obtain bovine muscle stem cells.
# (§5) In detail, first, bovine rump meat was treated with trypsin, and then primary-cultured to obtain bovine muscle stem cells. Afterwards, a culture medium supplemented with insulin and bFGF was prepared by varying the concentration of insulin (0.1 μm, 1 μm, 5 μm, 8 μm, and 10 8 μm, respectively) in a DMEM basal medium supplemented with 5% FBS and 8 ng/ml of bFGF, and the muscle stem cells were cultured through passage culture twice.
# (§6) In detail, first, bovine rump meat was treated with trypsin, and then primary-cultured to obtain bovine muscle stem cells. Afterwards, a culture medium supplemented with insulin was prepared by varying the concentration of insulin (0.1 μm, 1 μm, 5 μm, 8 μm, and 10 μm, respectively) in a DMEM basal medium supplemented with 5% FBS, and the muscle stem cells were cultured through passage culture twice.
# Nanog = test: qPCR expression level of Nanog (muscle stem cell marker) in cultured muscle stem cells; type: cell-based, bovine
# Procedure: as §2, §3, §1, §4, §5, §6
# Pax7 = test: qPCR expression level of Pax7 (myoblast marker) in cultured muscle stem cells; type: cell-based, bovine; conditions: for expression of Pax7, concentration dependence: concentration series
# Procedure: as §2, §3, §1, §4, §5, §6
# [1] = bFGF-free medium with 5% FBS, overall statement
# [2] = insulin 10 μm or more, with 8 ng/ml bFGF
# [3] = medium with 5% FBS + 8 ng/ml bFGF, overall statement, passage culture twice
# [4] = medium with 5% FBS + 8 ng/ml bFGF
# [5] = glycine 1 mM to 50 mM, bFGF-free
molecule,measurement,setting,value
insulin,cell proliferation rate increase compared to basal medium,"bovine muscle stem cells; 10 μm insulin, DMEM + 5% FBS + 8 ng/ml bFGF, cultured for 29 days",≥ 6 times
same,cell proliferation rate increase compared to basal medium,"bovine muscle stem cells; 10 μm insulin, DMEM + 5% FBS, bFGF-free, cultured for 41 days",≥ 13 times
same,expression of Oct4,Oct4; [1],increased
same,expression of Oct4,Oct4; [2],significantly decreased
same,expression of Oct4,Oct4; [3],increased
same,expression of Nanog,Nanog; [1],maintained
same,expression of Nanog,Nanog; [2],significantly decreased
same,expression of Nanog,"Nanog; insulin 10 μm, bFGF-free",significantly decreased
same,expression of Nanog,Nanog; [3],increased
same,"expression of Pax7, concentration dependence",Pax7; bFGF-free medium with 5% FBS,increased in proportion to the concentration of insulin
same,"expression of Pax7, concentration dependence",Pax7; [4],increased in proportion to the concentration of insulin
COc1cc(/C=C/C(=O)CC(=O)/C=C/c2ccc(O)c(OC)c2)ccc1O [curcumin],cell proliferation rate increase compared to basal medium,"bovine muscle stem cells; 8 μm curcumin, DMEM + 5% FBS + 8 ng/ml bFGF, cultured for 29 days",≥ 1.5 times
same,cell proliferation rate increase compared to basal medium,"bovine muscle stem cells; 8 μm curcumin, DMEM + 5% FBS, bFGF-free, cultured for 41 days",≥ 1.5 times
same,expression of Oct4 vs curcumin-free DMSO control,"Oct4; curcumin 0.1 μm to 5 μm, with 8 ng/ml bFGF",increased by about twice
same,expression of Oct4 vs curcumin-free DMSO control,"Oct4; curcumin 1 μm to 5 μm, bFGF-free",increased by at least about twice
same,expression of Oct4,"Oct4; curcumin 8 μm or more, with 8 ng/ml bFGF",significantly decreased
same,expression of Oct4,"Oct4; curcumin 8 μm, bFGF-free",significantly decreased
same,expression of Oct4,Oct4; [3],increased
same,expression of Nanog,Nanog; [1],maintained
same,expression of Nanog vs curcumin-free DMSO control,"Nanog; curcumin 0.1 μm and 1 μm, with 8 ng/ml bFGF",increased by about twice
same,expression of Nanog,"Nanog; curcumin 5 μm or more, with 8 ng/ml bFGF",significantly decreased
same,expression of Nanog,"Nanog; curcumin 8 μm, bFGF-free",significantly decreased
same,expression of Nanog,Nanog; [3],increased
same,"expression of Pax7, concentration dependence",Pax7; bFGF-free medium with 5% FBS,increased in proportion to the concentration of curcumin
same,expression of Pax7,"Pax7; curcumin 8 μm, bFGF-free",significantly increased
same,"expression of Pax7, concentration dependence",Pax7; [4],increased in proportion to the concentration of curcumin
NCC(=O)O [glycine],cell proliferation rate increase compared to basal medium,"bovine muscle stem cells; 100 mM glycine, DMEM + 5% FBS + 8 ng/ml bFGF, cultured for 29 days",≥ 1.5 times
same,cell proliferation rate increase compared to basal medium,"bovine muscle stem cells; 100 mM glycine, DMEM + 5% FBS, bFGF-free, cultured for 41 days",≥ 4.1 times
same,expression of Oct4 vs glycine-free DMSO control,Oct4; [5],increased by about twice
same,expression of Oct4 increase vs glycine-free DMSO control,"Oct4; glycine 1 mM to 50 mM, with 8 ng/ml bFGF",about 2.3 times
same,expression of Oct4,"Oct4; glycine 100 mM or more, with 8 ng/ml bFGF",significantly decreased
same,expression of Oct4,"Oct4; glycine 100 mM, bFGF-free",significantly decreased
same,expression of Oct4,Oct4; [3],increased
same,expression of Nanog vs glycine-free DMSO control,Nanog; [5],increased by about twice
same,expression of Nanog vs glycine-free DMSO control,"Nanog; glycine 10 mM to 100 mM, with 8 ng/ml bFGF",increased by about twice
same,expression of Nanog,"Nanog; glycine 100 mM, bFGF-free",significantly decreased
same,expression of Nanog,"Nanog; glycine 150 mM or more, with 8 ng/ml bFGF",significantly decreased
same,expression of Nanog,Nanog; [3],increased
same,expression of Pax7 increase vs insulin-free DMSO control,"Pax7; 10 µM, bFGF-free insulin culture medium",≥ 6 times
same,"expression of Pax7, concentration dependence",Pax7; bFGF-free medium with 5% FBS,increased in proportion to the concentration of glycine
same,expression of Pax7 increase vs glycine-free DMSO control,"Pax7; glycine 100 mM or more, bFGF-free",≥ 3 times
same,"expression of Pax7, concentration dependence",Pax7; [4],increased in proportion to the concentration of glycine
